Reference: patent US20230079732A1, “OPAL PEPTIDE ADMINISTRATION” (priority 2020, published 2023)
Where two headings read alike, the source gives them in different places.

Columns and labels:
blood glucose [1] = test: Glucose tolerance test with an oral dose of conjugate (FIG. 4); type: in vivo, rodents; settings: for effect on blood glucose after glucose gavage: 30 minutes before glucose gavage, monitored 90 minutes (FIG. 4 legend)
Procedure: Each subject was then monitored for blood glucose over the 90 minutes after receiving the glucose gavage.
A population of 30 healthy rodents without diabetic symptoms were obtained, and were divided into six treatment groups: one group of 5 rodents received 2 IU/kg of insulin by intraperitoneal injection 30 minutes prior to a glucose gavage; one group received 100 IU/kg of insulin by via oral gavage 30 minutes prior to a glucose gavage; […] gavage; one group of 5 […] gavage and one group of five rodents were given only a glucose gavage. Blood glucose of all rodents were then monitored over 90 minutes post-glucose gavage.

[2] = Biodistribution of ^14C radiolabelled insulin (FIG. 6); settings: for main location of radiolabelled insulin: after 30 minutes, mice fasted 4 hours
Procedure: Tissue samples and blood plasma were prepared for radiolabel component analysis according to standard methods. Data is presented in this figure is as a percentage of radiolabel insulin relative to the administrated dosage, data is shown as mean±SD.
Three mice treatment groups were fasted for 4 hours before given either an oral gavage of insulin (Oral INS), a subcutaneous injection of insulin (SC-INS) or an oral gavage of QD-insulin conjugate (QD-INS) at 2 IU/kg doses.

[3] = Uptake of radiolabeled insulin-quantum dot conjugate after oral administration; settings: 30 minutes after oral administration, healthy rodents
Procedure: (§1) Conjugates of radiolabeled insulin and quantum dots were produced in a method as described above, albeit with radiolabeled insulin used instead of native insulin. Two groups of healthy rodents were then orally administered either a dose of conjugates or equivalent radiolabeled unbound insulin. The distribution of radioactivity was then monitored 30 minutes after administration.

blood glucose [4] = test: Oral glucose tolerance test (oGTT), SC-INS versus QD-INS (FIG. 5); type: in vivo, C57BL/6 mice; settings: oral gavage 20 IU/kg, 30 minutes before oGTT
Procedure: A further study was carried out on healthy rodents without diabetic symptoms comparing a saline subcutaneous injection (control), a subcutaneous injection of insulin (SC-INS, 2 IU/kg), or an oral gavage of oral-insulin (QD-INS, 20 IU/kg) 30 minutes before a glucose tolerance test (oGTT).

[5] = in vivo, po
Procedure: as §1

blood glucose [6] = test: Insulin tolerance test in diabetic NOD/Scid mouse model (FIG. 8); type: in vivo, NOD/Scid mice; settings: oral gavage versus subcutaneous injection
Procedure: NOD mice with a blood glucose below […] were treated with SC-INS (1 IU/kg) or QD-INS (25 IU/kg) at time 0, mice with a blood glucose above […] were treated with 4 IU/kg SC-INS or 100 IU/kg QD-INS. Blood glucose samples were collected at −15, 0, 15, 30, 45 and 60 mins. […] Data points showing the mean±SD.
Blood glucose was measured used a handheld Glucometer using Accu-check proforma strips. Blood was collected by tail vein sampling following a tail snip. Blood glucose was collected at −15, 0, 15, 30, 45 and 60 mins after a subcutaneous (SC) insulin injection (0.1, 1 or 2 IU/kg) or a gavage of QD-insulin conjugates (10, 20, 30, 40, 50, 75 or 100 IU/kg).

Row | Substance | blood glucose lowering, no spike after glucose gavage (blood glucose [1]; 2 IU/kg by intraperitoneal injection 30 minutes prior to glucose gavage (Example 3)) | effect on blood glucose after glucose gavage (blood glucose [1]; intraperitoneal injection equivalent to 0.1 IU/kg insulin) | main location of radiolabelled insulin ([2]; oral gavage 2 IU/kg) | main location of radiolabelled insulin ([2]; subcutaneous injection 2 IU/kg) | location of radiolabelled insulin ([2]; after 2 hours, oral gavage 2 IU/kg) | radiolabelled insulin located in the liver ([2]; after 2 hours, subcutaneous injection 2 IU/kg) | radioactive label found in the liver [3] | effect on blood glucose after glucose gavage (blood glucose [1]; oral gavage equivalent to 20 IU/kg insulin) | blood glucose lowering effects compared with the injected insulin (blood glucose [1]; orally administered) | blood glucose lowering, no spike after glucose gavage (blood glucose [1]; quantum dot insulin group, oral, 30 minutes prior to glucose gavage (Example 3)) | lowering of blood glucose levels in oGTT compared with injected insulin (SC-INS, 2 IU/kg) (blood glucose [4]) | radioactive label found in the liver [5] | QD-insulin dose relative to the SC-insulin dose that resulted in similar glucose reductions (blood glucose [6])
1 | insulin | effective in lowering blood glucose | reduced the blood glucose of the rodent subjects by an approximately equivalent amount | mainly located in the small bowel | found in the liver and blood | still located in the bowel | about 50% | approximately 1% |  |  |  |  |  | 
2 | QD-insulin: Ag2S quantum dot conjugated to insulin by EDC/NHS, then assembled with chitosan with galactose or glucose biopolymer |  |  |  |  |  |  |  | reduced the blood glucose of the rodent subjects by an approximately equivalent amount | equal, if not better | effective in lowering blood glucose | as effective | Approximately 50% | about 25 times
